This is an account of results in patent US10828271B2, “Method for treating pleuroperitoneal membrane cancers by locally injecting disulfiram preparation” (NUOMA (BEIJING) TECHNOLOGY CO., LTD, priority 2016, dated 2020).

Data set [1] in a line: Anticancer activity of disulfiram metabolites (unpublished data). Particulars: unpublished data of the applicant.
The subject of data set [2] is SKVO-3 ovarian cancer cells. Description: Peritoneal ovarian cancer model in CD1 nude mice. Type of data set: in vivo, mouse.
Experimental: (§2) MSTO mesothelioma cells and SKVO-3 ovarian cancer cells were cultured in a DMEM medium containing 10% fetal calf serum supplemented with 10 mg/ml streptomycin and 2 mmol/L L-glutamine at 37° C. under a 5% CO2 atmosphere.
(§3) MSTO mesothelioma cells and SKVO-3 ovarian cancer cells were injected at a rate of 3×10^6/animal into female CD1 nude mice and animals were randomly divided into two groups (10 animals/group). […] Drug administration was performed three times per week. The mice were weighed three times per week. Once the experiment was complete, the animals were sacrificed via cervical dislocation. The abdominal cavities of all mice were opened to observe and assess ascites formation and abdominal wall tumors.
For data set [3] the following is noted: absorbed disulfiram in the bloodstream; cited from earlier work.
Another data set deals with S180 ascites tumor cells. Particulars: for Formation of ascites and masses at laparotomy: three weeks after cell injection.
The subject of data set [4] is MSTO mesothelioma cells. Description: Peritoneal MSTO mesothelioma model in CD1 nude mice. Type of data set: in vivo, mouse.
Experimental: as §2, §3
For data set [5] the following is noted: oral dose of 500 mg; cited from earlier work.
In the next data set the test system is 2591 mesothelioma cells. Put plainly: MTT cell survival assay, 2591 mesothelioma cells. Type of data set: cell-based, human. Particulars: for IC50: 2591 cells, 3 days incubation, MTT, read-out: IC50s (nM), inhibition of mesothelioma growth, 2591; for Synergy index CI at ED50, 2591 / Synergy index CI at ED75, 2591 / Synergy index CI at ED90, 2591: named drug combined with DS + Cu. The procedure: (§1) Separate incubations were performed with pemetrexed, DS/Cu (disulfiram/copper gluconate) and cisplatin for 3 days. Cell survival was determined via an MTT assay.

The next data set has as its system Ju77 mesothelioma cells. Description: MTT cell survival assay, Ju77 mesothelioma cells. Type of data set: cell-based, human. Particulars: for IC50: Ju77 cells, 3 days incubation, MTT, read-out: IC50s (nM), inhibition of mesothelioma growth, Ju77; for Synergy index CI at ED50, Ju77 / Synergy index CI at ED75, Ju77 / Synergy index CI at ED90, Ju77: named drug combined with DS + Cu. The procedure:
as §1
For orientation: Tetrazolium dyes change colour on reduction, which living cells bring about.

The test system of another data set is E58 mesothelioma cells. Put plainly: MTT cell survival assay, E58 mesothelioma cells. Type of data set: cell-based, human. The conditions noted are these: for Synergy index CI at ED50, E58 / Synergy index CI at ED75, E58 / Synergy index CI at ED90, E58: named drug combined with DS + Cu. The procedure: as §1
Data set [6] has as its system MSTO mesothelioma cells. Description: MTT cell survival assay, MSTO mesothelioma cells. The conditions noted are these: for IC50: MSTO cells, 3 days incubation, MTT, read-out: IC50s (nM), inhibition of mesothelioma growth, MSTO; for Synergy index CI at ED50, MSTO / Synergy index CI at ED75, MSTO / Synergy index CI at ED90, MSTO: named drug combined with DS + Cu. Type of data set: cell-based, human. The procedure: as §1

The test system of data set [7] is A2780 ovarian cancer cells. Description: Cell survival assay, A2780 ovarian cancer cells. Type of data set: cell-based, human.
Data set [8] concerns SKOV-3 ovarian cancer cells. Put plainly: Cell survival assay, SKOV-3 ovarian cancer cells. Type of data set: cell-based, human. Particulars: cisplatin (CDDP) combined with DS + Cu.
Where [9] appears, read: disulfiram 5 mg/kg i.p. + CuGlu 5 mg/kg oral, three times per week, Day 21.
[10] abbreviates: disulfiram 40 μg/animal i.p. + CuGlu oral, as of Day 90.

Where two headings read alike, the source gives them in different places. Bounds are passed on as bounds.

Experimental for S180 ascites tumor cells: S180 ascites cells were purchased from the Chinese Academy of Sciences Shanghai Cell Bank and cultured in a DMEM medium containing 10% fetal calf serum supplemented with 10 mg/ml streptomycin and 2 mmol/L L-glutamine at 37° C. under a 5% CO2 atmosphere.
S-180 cells were injected at a rate of 2.5×10^6/animal into the abdominal cavity of male Kunming mice and the animals were randomly divided into two groups (8 animals/group). […] Drug administration was performed three times per week. The mice were weighed three times per week. Once the experiment was complete, the animals were sacrificed via cervical dislocation. The abdominal cavities of all mice were opened to observe and assess ascites formation and abdominal wall tumors.

For the compound `CCN(CC)C(=S)SC1OC(C(=O)O)C(O)C(O)C1O` (stereo not shown) [glucuronic acid DDC], in [1], the Anticancer activity result is recorded as “completely lack any anticancer activity”.

In the case of `CCN(CC)C(=S)SSC(=S)N(CC)CC` [disulfiram], the “Survival rate, ovarian cancer mice” value in data set [2] (disulfiram 40 μg/animal (2 mg/kg) i.p. + CuGlu 5 mg/kg oral, Day 60) came to 90%. Moreover, the “Cancer nodules / masses, ovarian cancer mice” value in data set [2] (disulfiram 40 μg/animal i.p. + CuGlu oral, Day 60) is “only a small number of masses had formed”. For the same compound, the “Ascites, ovarian cancer mice” value in data set [2] (disulfiram 40 μg/animal i.p. + CuGlu oral, as of Day 60) is “did not reveal any ascites”. In data set [3], the “Half-life of reduction by the glutathione reductase system in red blood cells” value is 4 min. Further, in the data set with S180 ascites tumor cells (setting [9]), the “Mean ascites volume per mouse” value is on record as 0 ml per mouse and the “Number of cancer nodules per mouse” value is 0 nodules per mouse. Moreover, the “Formation of ascites and masses at laparotomy” value with S180 ascites tumor cells (disulfiram 5 mg/kg i.p. + CuGlu 5 mg/kg oral) is on record as “no formation of ascites or masses was observed”. For the same compound, the “Formation of ascites and masses at laparotomy” value in the data set on S180 ascites tumor cells (disulfiram 5 mg/kg i.p. + CuGlu 5 mg/kg oral, listed as DS) is given as “no formation of ascites or tumor nodules”. In addition, in the data set with S180 ascites tumor cells (disulfiram 5 mg/kg i.p. with oral copper gluconate, S180 tumor-bearing mice), the “Effect on peritoneal metastasis” value was “completely eliminate the animals' peritoneal metastasis”. Besides, in the data set with S180 ascites tumor cells (one week after injection of the cells), the “Body weight compared with control group” value was “significantly lower than that of mice in the control group”. Further, the “Survival rate, mesothelioma mice” value in the data set on MSTO mesothelioma cells [4] (disulfiram 40 μg/animal (2 mg/kg) i.p. + CuGlu 5 mg/kg oral, Day 90) is 60%. In the data set with MSTO mesothelioma cells [4] (setting [10]), the “Ascites, mesothelioma mice” value is on record as “did not reveal any ascites” and the “Cancer nodules / masses, mesothelioma mice” value was “only a small number of masses had formed”. Also, in [5], the Blood concentration entry is recorded as “below the detection limit”.

Turning to `Nc1nc2[nH]cc(CCc3ccc(C(=O)N[C@@H](CCC(=O)O)C(=O)O)cc3)c2c(=O)[nH]1` [PMTX, pemetrexed], the IC50 in the data set on 2591 mesothelioma cells (Homo sapiens, 72 h) was more than 1000 nM. In addition, in the data set with 2591 mesothelioma cells, the “Synergy index CI at ED50, 2591” value was 0.341; the “Synergy index CI at ED75, 2591” value was 0.253; the “Synergy index CI at ED90, 2591” value amounted to 0.603. Moreover, the IC50 in the data set on Ju77 mesothelioma cells (Homo sapiens, 72 h) is more than 1000 nM. In the data set on Ju77 mesothelioma cells, the “Synergy index CI at ED50, Ju77” value worked out at 0.308; the “Synergy index CI at ED75, Ju77” value amounted to 0.431; the “Synergy index CI at ED90, Ju77” value stood at 0.603. For the same compound, in the data set on E58 mesothelioma cells (Homo sapiens, 72 h, E58 cells, 3 days incubation, MTT, read-out: IC50s (nM), inhibition of mesothelioma growth, E58), the IC50 is more than 1000 nM. Besides, in the data set with E58 mesothelioma cells, the “Synergy index CI at ED50, E58” value is on record as 0.383; the “Synergy index CI at ED75, E58” value came to 0.384; the “Synergy index CI at ED90, E58” value amounted to 0.503. The IC50 in the data set with MSTO mesothelioma cells [6] (Homo sapiens, 72 h) was determined as 920 nM. In the data set with MSTO mesothelioma cells [6], the “Synergy index CI at ED50, MSTO” value is 0.399; the “Synergy index CI at ED75, MSTO” value is recorded as 0.196; the “Synergy index CI at ED90, MSTO” value came to 0.102.

`[NH2][Pt]([NH2])([Cl])[Cl]` [CDDP, cisplatin]: in data set [7] (A2780 cells, 3 days incubation, read-out: IC50s (nM), ovarian cancer cells, A2780), the IC50 came to 4590 nM. The “Synergy index CI at ED50, A2780” value in [7] (cisplatin (CDDP) combined with DS + Cu, ED50, A2780) is 0.567. For the same compound, the “Synergy index CI at ED75, A2780” value in data set [7] (cisplatin (CDDP) combined with DS + Cu, ED75, A2780) is given as 0.320. The “Synergy index CI at ED90, A2780” value in data set [7] (cisplatin (CDDP) combined with DS + Cu, ED90, A2780) is on record as 0.209. In addition, in the data set on 2591 mesothelioma cells, the IC50 is 9160 nM; the “Synergy index CI at ED50, 2591” value amounted to 0.777; the “Synergy index CI at ED75, 2591” value was found to be 0.868; the “Synergy index CI at ED90, 2591” value is reported as 1.170. Moreover, in the data set with Ju77 mesothelioma cells, the IC50 was determined as 8790 nM; the “Synergy index CI at ED50, Ju77” value is on record as 0.389; the “Synergy index CI at ED75, Ju77” value was 0.346; the “Synergy index CI at ED90, Ju77” value is listed as 0.319. For the same compound, in the data set with E58 mesothelioma cells, the “Synergy index CI at ED50, E58” value was determined as 0.385; the “Synergy index CI at ED75, E58” value worked out at 0.355; the “Synergy index CI at ED90, E58” value was determined as 0.449. For the same compound, the “Synergy index CI at ED50, SKOV-3” value in data set [8] (ED50) stood at 0.389. In data set [8] (ED75), the “Synergy index CI at ED75, SKOV-3” value is 0.346. Besides, in [8] (ED90), the “Synergy index CI at ED90, SKOV-3” value was 0.319. In addition, in the data set with MSTO mesothelioma cells [6], the IC50 came out at 4590 nM; the “Synergy index CI at ED50, MSTO” value is 0.567; the “Synergy index CI at ED75, MSTO” value worked out at 0.320; the “Synergy index CI at ED90, MSTO” value worked out at 0.209.

methylated disulfiram: in [1], the Anticancer activity entry is reported as “completely loses its anticancer activity”.

Consider `CCN(CC)C(=S)SC` [methyl DDC], for which, in [1], the Anticancer activity result is “completely lack any anticancer activity”.
